Assay results taken from the NIST ThermoML archive (doi:10.1021/je700755t).

Key:
[1] = 101 kPa, Liquid; for viscosity: Capillary tube (Ostwald / Ubbelohde) method
[2] = xn = mol fraction of the nth substance listed; details: 101 kPa, Liquid, x2 = 0; for viscosity: Capillary tube (Ostwald / Ubbelohde) method

CC(=O)O [acetic acid]
[1]
Details | mass density [kg/m3] | viscosity [mPa·s]
303.15 K | 1038.66 | 1.059
313.15 K | 1027.37 | 0.92
323.15 K | 1016.08 | 0.804
333.15 K | 1005.04 | 0.709
343.15 K | 993.69 | 0.632
353.15 K | 982.95 | 0.57

CN(C)C=O [dimethylformamide]
[1]
Details | mass density [kg/m3] | viscosity [mPa·s]
303.15 K | 939.45 | 0.76
313.15 K | 929.86 | 0.675
323.15 K | 920.92 | 0.608
333.15 K | 910.64 | 0.552
343.15 K | 901.72 | 0.502
353.15 K | 891.44 | 0.46

CN(C)C=O [dimethylformamide] + CC(=O)O
[2]
Details | mass density [kg/m3] | viscosity [mPa·s]
303.15 K | 939.45 | 0.76
313.15 K | 929.86 | 0.675
323.15 K | 920.92 | 0.608
333.15 K | 910.64 | 0.552
343.15 K | 901.72 | 0.502
353.15 K | 891.44 | 0.46

CN(C)C=O [dimethylformamide] + O=CO
[2]
Details | mass density [kg/m3] | viscosity [mPa·s]
303.15 K | 939.45 | 0.76
313.15 K | 929.86 | 0.675
323.15 K | 920.92 | 0.608
333.15 K | 910.64 | 0.552
343.15 K | 901.72 | 0.502
353.15 K | 891.44 | 0.46

O=CO [formic acid]
[1]
Details | mass density [kg/m3] | viscosity [mPa·s]
303.15 K | 1205.07 | 1.437
313.15 K | 1192.81 | 1.205
323.15 K | 1180.63 | 1.022
333.15 K | 1167.44 | 0.879
343.15 K | 1154.99 | 0.766
353.15 K | 1142.08 | 0.677
